Data from publication PMC3504148, “Enteropeptidase: A Gene Associated with a Starvation Human Phenotype and a Novel Target for Obesity Treatment” (PLoS ONE, 2012).

Columns and labels:
[1] = Pharmacokinetics in mice, IV and oral; assay type: in vivo, male Swiss mice
Procedure: Figure 5 Pharmacokinetics of OBE-2008 in mice following intravenous (1 mg/kg, dark blue) and oral (10 mg/kg, light blue) dosing. Number of mice per group n = 3.
This study aimed to determine the fate of OBE lead in mice after intravenous (IV; 1 mg/kg) and oral (PO; 10 mg/kg) administration. Blood was taken from two animals at each sampling time from T = 0 to T = 6 h after IV administration, and from T = 0 to T = 24 h after oral administration. Samples were analyzed for OBE lead using LC/MS/MS methodology. For each IV and PO routes, three male Swiss mice aged 10-weeks were included in the experiment. The animals OBE IV-1, OBE IV-2 and OBE IV-3 were treated at T = 0 with 1 mg/kg of OBE lead using 2 mL/kg. The injection was performed in the jugular vein under isoflurane anaesthesia. The animals OBE PO-1, OBE PO-2 and OBE PO-3 were treated at T = 0 with 10 mg/kg of OBE lead using 5 mL/kg. The solution to be administered was delivered by gavage, using a gastric cannula. About 50–75 µL of blood were sampled from the retro orbital sinus. The blood was immediately centrifuged at 3500 rpm (+4°C) for 5 minutes. Protein precipitation was conducted by adding a volume of 400 µL of acetonitrile to 10 µL of plasma in Teflon vials. After centrifugation, an aliquot of the supernatant (+4°C auto-sampler; injected volume = 10 µL) was immediately analyzed by LC/MS/MS (column: HILIC Silica 5 µM 2.1×150 mm; isocratic elution using an ACN/pH3 buffer (70/30, V/V) eluant containing 1% formic acid; flow rate = 0.25 mL/min. The MS system operated in the ESI mode, and the ionization source was heated at 350°C). Chromatographic peaks areas were than calculated and plotted against time.

[2] = tested on: fasted mice given radiolabeled proteins; assay: Effect on 14C-protein absorption in mouse; assay type: in vivo, male Swiss mice; details: 240 minutes, not statistically significant
Procedure: (§1) Figure 4 The mechanism-based efficacy of OBE-2008 on enteropeptidase was evaluated based on triglycerides (left) and amino acids (right) absorption. Red = control; dark green = dose of 5 mg/kg; light green = dose of 50 mg/kg. Number of mice per group n = 3 (right) for amino acids, and n = 8 (left) for triglycerides. Statistical comparison between control and treated group were conducted by two-sided unpaired Student’s tests. Asterisks (*) indicate p values versus control. A p value of<0.05 was considered to show a statistically significant difference.
The aim of the study was to evaluate the duration of effect of OBE lead on absorption of ^14C-proteins after oral administration in mice. Fifteen male Swiss mice were divided in 3 groups; Group 1: water and ^14C-proteins; Group 2: OBE lead 5 mg/Kg and ^14C-proteins; Group 3: OBE lead 50 mg/Kg and ^14C-proteins. A preparation containing 5 ml of Clinoleic 20 (Baxter Ref DDB9500) with 1 g of glucose (Sigma; ref:G8270) and 1 g of casein (Sigma; ref: C3400) was prepared. […] About 4 ml Pico-fluor 40 was added and after shaking, the total radioactivity contained within the different samples was determined by liquid scintillation using a Packard 1900 CA spectrometer equipped with an external standard system. […]

[3] = tested on: mouse model of diet-induced obesity (DIO); assay: Long term effect in mice fed with DIO regimen; assay type: in vivo, male Swiss mice
Procedure: Figure 3 Effect of OBE-2008 administered before night phase on food consumption (left) and body weight (right) in mice. Red = control; dark green = dose of 10 mg/kg/day; light green = dose of 25 mg/kg/day. Number of mice per group n = 10. Statistical comparison between control and treated group were conducted by Dunnett’s tests. Asterisks (*) indicate p values versus control. A p value of<0.05 was considered to show a statistically significant difference.
The anti-obesity effect of OBE lead in a diet induced obesity model (45% kcal from lipids and 20% from proteins, reference 824053 from Special Diet Services, UK) was evaluated following daily oral administration in mice for 63 days. The study involved 3 groups of 10 male Swiss mice; Group 1: water; Group 2: OBE lead at 10 mg/kg/day; Group 3: OBE lead at 25 mg/kg/day. Animal were weighted daily. Food consumption was measured daily for each animal, except during fasted periods. For all groups, the food was given ad libitum. Body weights are given as means ± SEM (Standard Error of the Mean). The effects of test items on body weight and food consumption were expressed as absolute values and compared with those of the vehicle using multiple comparison procedure with a Dunnett’s test in case of significance (P≤0.05).

[4] = tested on: fasted mice given oral fat overload; assay: Effect on triglycerides absorption in mouse; assay type: in vivo; details: for decrease of fatty acids absorption (plasma triglycerides AUC): up to 6 hours, p<0.05
Procedure: as §1
The aim of the study was to evaluate the duration of effect of OBE lead on triglycerides absorption in mice after oral administration. The study involved 3 groups of 8 male animals each. Group 1: water; Group 2: OBE lead at 5 mg/kg; Group 3: OBE lead at 50 mg/kg. On the day of the test, all animals were given an oral fat overload. The preparation to be administered (OBE lead or its vehicle) was diluted at 1/100 in 10 mL of clinoleic acid 20. In all animals, about 60 µL were sampled via retro orbital sinus at time points: before dosing, 1, 2, 3, 5 and 6 hours post-dosing. The blood samples were prepared within 30 minutes of sampling by centrifugation for 10 minutes at 1500 g. All plasma samples were dosed for triglycerides. The effects of test items on triglycerides absorption were conducted by two-side unpaired Student’s test. A p value of<0.05 was considered to show a statistically significant difference.

SMILES: CC(=O)N[C@@H](C)C(=O)N[C@@H](Cc1ccccc1)C(=O)N[C@@H](CCCCN)B1O[C@@H]2C[C@@H]3C[C@@H](C3(C)C)[C@]2(C)O1 [OBE-2008]
- detectability in plasma ([1]; intravenous 1 mg/kg): undetectable after 2 hours
- plasma half-life ([1]; intravenous 1 mg/kg): minutes
- calculated bioavailability ([1]; oral 10 mg/kg vs intravenous 1 mg/kg): 2–3%
- decrease of total protein absorption (AUC) ([2]; 5 mg/kg oral): 17%
- decrease of total protein absorption (AUC) ([2]; 50 mg/kg oral): 22%
- side effects such as steatorrhea or diarrhea ([3]; long-term oral treatment): no side effects
- reduction of weight gain relative to control group ([3]; oral 10 mg/kg daily, up to 9 weeks): 6%
- reduction of weight gain relative to control group ([3]; oral 25 mg/kg daily, up to 9 weeks): 10%
- effect on food consumption ([3]; oral daily 10 and 25 mg/kg, up to 9 weeks, food ad libitum): no effect
- maximum level of triglycerides in plasma after 1 hour vs control ([4]; 5 mg/kg and 50 mg/kg oral): substantially lower than in the control group
- decrease of fatty acids absorption (plasma triglycerides AUC) ([4]; 5 mg/kg oral): 33%
- decrease of fatty acids absorption (plasma triglycerides AUC) ([4]; 50 mg/kg oral): 32%
